Assay results published in patent publication US8158186B2, “2-methylthioethyl-substituted heterocycles as feed additives” (Evonik Degussa GmbH, priority 2007, dated 2012).
Like-named read-outs stand apart in the source and are kept apart here.

Experiments:
[1] = cited from earlier work
[2] = European Commission report, 25 Apr. 2003; cited from earlier work
[3] = published in WO 00/28835, ruminants

Row | Compound | biological value [1, 3] | melting point [°C] | other results
1 | CSCCC(N)C(=O)OC(C)(C)C (racemic) [D,L-tert-butylmethionine, reference compound] | 80% | – | –
2 | CSCCC(O)C(=O)OC(C)C (centres unmarked) [HMBi] | at least 50% | – | biological value ([1]; published in EP 1358805, HMBi applied to a porous carrier, compared with the at least 50% of WO 00/28835): comparable; HMBi absorbed through the rumen wall [2]: approximately 50%
3 | CSCCC1OC(C)(C)NC1=O (centres unmarked) [compound 10, 2,2-dimethyl-5-(2-(methylthio)ethyl)oxazolidin-4-one] | – | 84 | –
4 | CSCCC1OC(c2ccccc2)NC1=O (centres unmarked) [compound 12, 5-(2-(methylthio)ethyl)-2-phenyloxazolidin-4-one] | – | 130 | –
5 | CCC1(C)NC(=O)C(CCSC)O1 (centres unmarked) [compound 13, 2-ethyl-2-methyl-5-(2-(methylthio)ethyl)oxazolidin-4-one] | – | 62 | –
6 | CSCCC1OC2(CCCCC2)NC1=O (centres unmarked) [compound 14, 2-(2-(methylthio)ethyl)-1-oxa-4-azaspiro[4.5]decan-3-one] | – | 109 | –
